Laboratory results taken from ChEMBL document CHEMBL4613324, “Design, Synthesis, and Evaluation of a Series of Novel Super Long-Acting DPP-4 Inhibitors for the Treatment of Type 2 Diabetes” (J Med Chem, 2020).

Columns and labels:
Cytochrome P450 2C8 = target: T1, Cytochrome P450 2C8 (Homo sapiens, UniProt P10632); assay: Inhibition of recombinant human CYP2C8; type: ADME
T1 sequence (P10632 whole entry): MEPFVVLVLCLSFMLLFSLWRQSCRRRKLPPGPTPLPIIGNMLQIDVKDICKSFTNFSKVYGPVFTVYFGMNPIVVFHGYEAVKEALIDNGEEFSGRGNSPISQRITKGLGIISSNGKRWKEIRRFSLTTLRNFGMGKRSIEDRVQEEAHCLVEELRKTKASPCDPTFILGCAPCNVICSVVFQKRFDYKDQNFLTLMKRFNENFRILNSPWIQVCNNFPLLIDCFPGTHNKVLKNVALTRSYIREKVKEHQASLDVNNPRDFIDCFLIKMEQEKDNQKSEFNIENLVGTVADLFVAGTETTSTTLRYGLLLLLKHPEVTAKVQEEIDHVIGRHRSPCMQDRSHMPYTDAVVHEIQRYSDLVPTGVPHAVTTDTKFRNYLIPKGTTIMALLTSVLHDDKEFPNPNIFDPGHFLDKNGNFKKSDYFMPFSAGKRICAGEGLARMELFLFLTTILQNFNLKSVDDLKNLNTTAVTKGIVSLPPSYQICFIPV

Cytochrome P450 2C9 = Cytochrome P450 2C9 (Homo sapiens, UniProt P11712); assay: Inhibition of recombinant human CYP2C9; type: ADME
Cytochrome P450 2C19 [1] = target: T2, Cytochrome P450 2C19 (Homo sapiens, UniProt P33261); assay: (§1) Inhibition of recombinant human CYP2C19; type: ADME
Cytochrome P450 3A5 [2] = target: T3, Cytochrome P450 3A5 (Homo sapiens, UniProt P20815); assay: (§2) Inhibition of recombinant human CYP3A5 using midazolam as substrate; type: ADME
[3] = target: Dipeptidyl peptidase 4 (Mus musculus) (UniProt P28843); assay: Ex-vivo inhibition of DPP4 in plasma isolated from ob/ob mouse treated at 3 to 30 mg/kg, po measured after 2 to 72 hrs by fluorescence based assay; type: functional, organism-based
Cytochrome P450 3A4 [4] = target: T4, Cytochrome P450 3A4 (Homo sapiens, UniProt P08684); assay: Inhibition of recombinant human CYP3A4 using testosterone as substrate; type: ADME
Mus musculus = assay: Antidiabetic activity in ob/ob mouse assessed as reduction in decrease in HbA1c level at 10 mg/kg, po dosed once every three days for 31 day relative to control; type: functional; design: scale not given: the % may be the effect or the level left
Cytochrome P450 3A4 [5] = target: T4, Cytochrome P450 3A4; assay: Inhibition of recombinant human CYP3A4 using midazolam as substrate; type: ADME
[6] = AUC in male Sprague-Dawley rat during 3-month repeated dose toxicology study; type: ADME; conditions: in vivo
[7] = Half life in ICR mouse at 2 mg/kg, po measured after 0.0833 to 120 hrs by LC-MS-MS analysis; type: ADME, organism-based; conditions: in vivo
CYP3A5 = CYP3A5 (Homo sapiens, UniProt P20815); assay: Stability assessed as recombinant human CYP3A5 mediated compound metabolism by measuring parent compound remaining after 30 mins relative to control; type: ADME; conditions: read-out: Stability
CYP1A2 = CYP1A2 (Homo sapiens, UniProt P05177); assay: Stability assessed as recombinant human CYP1A2 mediated compound metabolism by measuring parent compound remaining after 30 mins relative to control; type: ADME; conditions: read-out: Stability
Cytochrome P450 2C19 [8] = target: T2, Cytochrome P450 2C19; assay: as §1; type: ADME; remark: listed apart in the source
CYP2C8 = CYP2C8 (Homo sapiens, UniProt P10632); assay: Stability assessed as recombinant human CYP2C8 mediated compound metabolism by measuring parent compound remaining after 30 mins relative to control; type: ADME; conditions: read-out: Stability
Cytochrome P450 3A5 [9] = target: T3, Cytochrome P450 3A5; assay: Inhibition of recombinant human CYP3A5 using testosterone as substrate; type: ADME
CYP3A4 = CYP3A4 (Homo sapiens, UniProt P08684); assay: Stability assessed as recombinant human CYP3A4 mediated compound metabolism by measuring parent compound remaining after 30 mins relative to control; type: ADME; conditions: read-out: Stability
[10] = Volume of distribution at steady state in ICR mouse at 0.5 mg/kg, iv measured after 0.0833 to 120 hrs by LC-MS-MS analysis; type: ADME, organism-based; conditions: in vivo, read-out: Vdss
Dipeptidyl peptidase 8 = Dipeptidyl peptidase 8 (Homo sapiens, UniProt Q6V1X1); assay: Inhibition of human recombinant DPP8 incubated for 15 mins using Gly-Pro-7-AMC substrate
[11] = Half life in ICR mouse at 0.5 mg/kg, iv measured after 0.0833 to 120 hrs by LC-MS-MS analysis; type: ADME, organism-based; conditions: in vivo
Cytochrome P450 2D6 = Cytochrome P450 2D6 (Homo sapiens, UniProt P10635); assay: Inhibition of recombinant human CYP2D6; type: ADME
Cytochrome P450 2A6 = target: T5, Cytochrome P450 2A6 (Homo sapiens, UniProt P11509); assay: Inhibition of recombinant human CYP2A6; type: ADME
T5 sequence (P11509 whole entry): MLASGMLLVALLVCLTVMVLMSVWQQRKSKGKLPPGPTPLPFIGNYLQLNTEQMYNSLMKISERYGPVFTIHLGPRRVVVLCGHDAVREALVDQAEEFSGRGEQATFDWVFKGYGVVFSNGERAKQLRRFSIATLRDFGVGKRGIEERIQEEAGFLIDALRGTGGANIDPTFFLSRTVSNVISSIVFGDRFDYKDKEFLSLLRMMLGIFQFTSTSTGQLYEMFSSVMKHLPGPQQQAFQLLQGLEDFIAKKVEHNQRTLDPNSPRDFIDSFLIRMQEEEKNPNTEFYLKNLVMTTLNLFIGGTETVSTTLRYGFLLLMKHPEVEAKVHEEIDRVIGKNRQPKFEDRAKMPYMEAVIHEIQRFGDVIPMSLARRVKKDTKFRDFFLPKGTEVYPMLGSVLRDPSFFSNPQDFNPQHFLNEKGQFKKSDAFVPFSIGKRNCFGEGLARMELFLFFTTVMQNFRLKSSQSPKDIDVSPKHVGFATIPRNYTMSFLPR

Cytochrome P450 1A2 = target: T6, Cytochrome P450 1A2 (Homo sapiens, UniProt P05177); assay: Inhibition of recombinant human CYP1A2; type: ADME
T6 sequence (P05177 whole entry): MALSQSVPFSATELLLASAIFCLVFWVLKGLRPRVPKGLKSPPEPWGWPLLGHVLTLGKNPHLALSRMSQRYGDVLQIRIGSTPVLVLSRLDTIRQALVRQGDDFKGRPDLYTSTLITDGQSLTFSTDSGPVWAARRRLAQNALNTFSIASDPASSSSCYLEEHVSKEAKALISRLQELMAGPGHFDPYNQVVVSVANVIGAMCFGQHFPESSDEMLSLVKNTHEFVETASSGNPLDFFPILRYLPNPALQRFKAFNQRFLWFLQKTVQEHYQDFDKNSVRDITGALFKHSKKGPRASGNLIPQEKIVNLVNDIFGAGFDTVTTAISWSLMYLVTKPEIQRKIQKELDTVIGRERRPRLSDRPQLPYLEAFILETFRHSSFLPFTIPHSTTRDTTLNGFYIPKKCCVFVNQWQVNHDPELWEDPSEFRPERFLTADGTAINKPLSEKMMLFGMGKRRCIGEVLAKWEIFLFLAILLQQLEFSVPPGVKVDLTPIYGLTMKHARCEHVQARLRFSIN

[12] = AUC in female Sprague-Dawley rat during 3-month repeated dose toxicology study; type: ADME; conditions: in vivo
[13] = Toxicity in male Sprague-Dawley rat during 3-month repeated dose toxicology study; conditions: in vivo
Cytochrome P450 3A5 [14] = target: T3, Cytochrome P450 3A5; assay: as §2; type: ADME; remark: listed apart in the source
[15] = target: Dipeptidyl peptidase 4 (Mus musculus) (UniProt P28843); assay: Ex-vivo inhibition of DPP4 in plasma isolated from ob/ob mouse assessed as time duration during which DPP4 inhibition rate stays above 80% treated at 30 mg/kg, po measured after 2 to 72 hrs by fluorescence based assay; type: functional, organism-based

T3 sequence (P20815 whole entry): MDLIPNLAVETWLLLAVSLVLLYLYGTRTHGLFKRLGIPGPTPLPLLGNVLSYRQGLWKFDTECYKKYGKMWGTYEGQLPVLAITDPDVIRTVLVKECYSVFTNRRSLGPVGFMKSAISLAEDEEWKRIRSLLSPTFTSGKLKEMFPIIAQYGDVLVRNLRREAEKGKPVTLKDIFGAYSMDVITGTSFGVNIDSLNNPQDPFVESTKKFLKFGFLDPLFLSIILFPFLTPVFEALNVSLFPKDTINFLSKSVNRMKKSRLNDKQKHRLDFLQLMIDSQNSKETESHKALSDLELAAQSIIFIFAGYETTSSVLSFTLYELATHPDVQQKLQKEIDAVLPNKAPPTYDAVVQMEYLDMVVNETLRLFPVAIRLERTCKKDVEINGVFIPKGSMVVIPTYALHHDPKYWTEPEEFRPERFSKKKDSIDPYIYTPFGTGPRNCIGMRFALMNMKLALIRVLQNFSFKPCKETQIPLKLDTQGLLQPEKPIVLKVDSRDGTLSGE
Dipeptidyl peptidase 4 (Mus musculus), sequence (P28843 whole entry, looked up): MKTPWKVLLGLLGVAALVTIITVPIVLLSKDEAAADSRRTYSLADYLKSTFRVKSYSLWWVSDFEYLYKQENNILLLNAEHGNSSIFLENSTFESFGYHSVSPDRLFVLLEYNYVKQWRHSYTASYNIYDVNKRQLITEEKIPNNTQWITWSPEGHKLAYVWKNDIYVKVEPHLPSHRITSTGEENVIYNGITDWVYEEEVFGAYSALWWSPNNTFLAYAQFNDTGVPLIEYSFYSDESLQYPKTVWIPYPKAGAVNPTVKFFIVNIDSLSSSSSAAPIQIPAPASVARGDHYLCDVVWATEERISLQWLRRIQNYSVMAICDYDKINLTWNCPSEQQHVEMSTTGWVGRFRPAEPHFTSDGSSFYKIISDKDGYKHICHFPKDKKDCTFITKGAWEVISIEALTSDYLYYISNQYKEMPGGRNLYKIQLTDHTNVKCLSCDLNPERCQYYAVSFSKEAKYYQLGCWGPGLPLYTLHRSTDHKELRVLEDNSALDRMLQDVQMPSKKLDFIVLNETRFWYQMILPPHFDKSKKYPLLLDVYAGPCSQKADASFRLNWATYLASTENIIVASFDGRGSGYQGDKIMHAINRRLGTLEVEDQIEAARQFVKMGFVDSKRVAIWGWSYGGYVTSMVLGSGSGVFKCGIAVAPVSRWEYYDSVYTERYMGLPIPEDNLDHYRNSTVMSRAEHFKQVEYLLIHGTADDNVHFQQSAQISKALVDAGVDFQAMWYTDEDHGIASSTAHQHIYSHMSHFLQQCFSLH
T2 sequence (P33261 whole entry): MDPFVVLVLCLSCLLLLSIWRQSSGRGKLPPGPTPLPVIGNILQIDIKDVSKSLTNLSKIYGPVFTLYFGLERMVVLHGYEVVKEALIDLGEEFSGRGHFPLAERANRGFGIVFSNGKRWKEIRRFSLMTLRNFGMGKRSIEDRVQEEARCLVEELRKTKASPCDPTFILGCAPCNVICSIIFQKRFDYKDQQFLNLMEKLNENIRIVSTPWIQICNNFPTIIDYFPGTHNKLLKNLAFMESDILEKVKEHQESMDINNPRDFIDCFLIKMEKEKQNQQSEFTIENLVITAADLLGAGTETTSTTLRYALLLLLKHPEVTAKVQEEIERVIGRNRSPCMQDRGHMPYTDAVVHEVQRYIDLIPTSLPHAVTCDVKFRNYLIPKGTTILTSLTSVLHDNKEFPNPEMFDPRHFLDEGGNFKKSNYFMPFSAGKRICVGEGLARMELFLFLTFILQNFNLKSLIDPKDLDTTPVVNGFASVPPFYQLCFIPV
T4 sequence (P08684 whole entry): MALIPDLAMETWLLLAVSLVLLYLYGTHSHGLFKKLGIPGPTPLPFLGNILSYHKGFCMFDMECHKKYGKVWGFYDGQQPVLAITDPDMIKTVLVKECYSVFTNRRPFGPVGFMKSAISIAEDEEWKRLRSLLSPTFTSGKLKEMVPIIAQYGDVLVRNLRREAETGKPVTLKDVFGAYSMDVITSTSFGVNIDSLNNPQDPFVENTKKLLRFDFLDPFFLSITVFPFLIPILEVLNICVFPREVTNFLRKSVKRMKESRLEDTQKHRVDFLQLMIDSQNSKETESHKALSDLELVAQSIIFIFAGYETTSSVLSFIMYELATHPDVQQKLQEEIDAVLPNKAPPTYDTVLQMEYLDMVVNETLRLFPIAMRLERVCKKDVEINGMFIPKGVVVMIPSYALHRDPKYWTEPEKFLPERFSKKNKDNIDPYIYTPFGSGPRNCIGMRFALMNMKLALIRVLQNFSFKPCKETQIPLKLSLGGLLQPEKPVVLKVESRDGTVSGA
CYP3A5, sequence (P20815 whole entry): as the sequence (P20815 whole entry) above
CYP3A4, sequence (P08684 whole entry): as the sequence (P08684 whole entry) above
Dipeptidyl peptidase 8, sequence (Q6V1X1 whole entry): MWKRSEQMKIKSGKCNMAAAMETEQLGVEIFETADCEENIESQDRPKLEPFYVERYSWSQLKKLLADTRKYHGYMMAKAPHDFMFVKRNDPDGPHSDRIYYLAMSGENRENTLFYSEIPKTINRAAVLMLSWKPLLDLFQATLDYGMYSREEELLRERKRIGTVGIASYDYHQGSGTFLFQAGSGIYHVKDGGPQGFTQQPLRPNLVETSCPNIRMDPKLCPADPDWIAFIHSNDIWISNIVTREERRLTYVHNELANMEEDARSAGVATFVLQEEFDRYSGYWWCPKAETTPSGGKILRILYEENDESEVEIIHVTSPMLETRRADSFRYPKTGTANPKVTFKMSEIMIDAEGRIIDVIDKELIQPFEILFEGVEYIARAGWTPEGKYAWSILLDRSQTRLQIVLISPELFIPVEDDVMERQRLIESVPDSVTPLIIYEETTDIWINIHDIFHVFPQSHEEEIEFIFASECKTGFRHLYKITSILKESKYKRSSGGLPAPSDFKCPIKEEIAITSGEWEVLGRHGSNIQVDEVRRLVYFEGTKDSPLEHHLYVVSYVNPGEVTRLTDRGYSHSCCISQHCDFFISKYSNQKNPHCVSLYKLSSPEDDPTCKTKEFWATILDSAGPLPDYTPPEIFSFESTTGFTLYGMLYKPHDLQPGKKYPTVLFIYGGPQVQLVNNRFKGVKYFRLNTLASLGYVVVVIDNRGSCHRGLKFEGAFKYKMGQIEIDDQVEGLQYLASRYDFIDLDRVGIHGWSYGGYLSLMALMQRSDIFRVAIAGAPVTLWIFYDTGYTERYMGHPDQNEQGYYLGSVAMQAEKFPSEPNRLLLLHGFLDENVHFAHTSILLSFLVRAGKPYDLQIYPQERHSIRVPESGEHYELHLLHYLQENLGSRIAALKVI
Cytochrome P450 2D6, sequence (P10635 whole entry): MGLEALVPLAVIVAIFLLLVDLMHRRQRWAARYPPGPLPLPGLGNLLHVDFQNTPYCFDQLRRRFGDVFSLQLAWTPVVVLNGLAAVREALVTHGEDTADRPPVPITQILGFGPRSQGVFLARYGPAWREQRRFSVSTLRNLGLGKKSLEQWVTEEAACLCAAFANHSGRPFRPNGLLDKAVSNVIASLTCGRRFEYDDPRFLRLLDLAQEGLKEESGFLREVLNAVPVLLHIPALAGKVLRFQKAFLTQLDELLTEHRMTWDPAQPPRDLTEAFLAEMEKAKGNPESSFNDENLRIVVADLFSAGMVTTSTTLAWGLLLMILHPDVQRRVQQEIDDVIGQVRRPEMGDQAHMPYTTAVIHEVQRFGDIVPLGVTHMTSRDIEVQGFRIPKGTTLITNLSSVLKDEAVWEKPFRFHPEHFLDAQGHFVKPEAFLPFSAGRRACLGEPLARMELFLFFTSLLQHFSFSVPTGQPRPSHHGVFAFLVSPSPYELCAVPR
Cytochrome P450 2C9, sequence (P11712 whole entry): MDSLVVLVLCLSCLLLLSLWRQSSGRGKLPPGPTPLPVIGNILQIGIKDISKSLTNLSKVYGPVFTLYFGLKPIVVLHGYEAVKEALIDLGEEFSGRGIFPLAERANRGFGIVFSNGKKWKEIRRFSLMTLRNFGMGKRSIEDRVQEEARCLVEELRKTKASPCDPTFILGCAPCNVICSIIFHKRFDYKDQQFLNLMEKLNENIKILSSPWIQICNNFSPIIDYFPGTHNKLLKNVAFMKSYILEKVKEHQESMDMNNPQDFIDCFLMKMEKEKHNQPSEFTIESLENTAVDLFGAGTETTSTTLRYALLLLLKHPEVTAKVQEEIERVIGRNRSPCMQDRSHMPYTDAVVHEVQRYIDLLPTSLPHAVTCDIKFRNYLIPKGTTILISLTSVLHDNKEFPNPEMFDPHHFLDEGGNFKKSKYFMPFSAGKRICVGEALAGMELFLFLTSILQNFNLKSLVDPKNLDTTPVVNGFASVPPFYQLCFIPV

Compound `CS(=O)(=O)n1cc2c(n1)CN([C@@H]1C[C@H](N)[C@@H](c3cc(F)ccc3F)O[C@@H]1C(F)(F)F)C2` [COFROGLIPTIN] has an IC50 (Cytochrome P450 2C8) of over 100 µM, an IC50 (Cytochrome P450 2C9) of over 100 µM and an IC50 (Cytochrome P450 2C19 [1]) of over 100 µM. The IC50 (Cytochrome P450 3A5 [2]) was over 100 µM, the inhibition [3] was “Dose-dependent effect” and the IC50 (Cytochrome P450 3A4 [4]) was over 100 µM. For the same compound, the Activity (Mus musculus) was 16.2%, the IC50 (Cytochrome P450 3A4 [5]) was over 100 µM and the AUC [6] was 3600 µg·h/mL. The half-life [7] was 29.9 h, the remaining at 0.5 h (CYP3A5) was over 95% and the remaining at 0.5 h (CYP1A2) was over 95%. The IC50 (Cytochrome P450 2C19 [8]) was over 100 µM, the remaining at 0.5 h (CYP2C8) was over 95% and the IC50 (Cytochrome P450 3A5 [9]) was over 100 µM. The remaining at 0.5 h (CYP3A4) was over 95%, the Vd [10] was 3.3 L/kg and the IC50 (Dipeptidyl peptidase 8) was over 100 µM. For the same compound, the half-life [11] was 25.6 h, the IC50 (Cytochrome P450 2D6) was over 100 µM and the IC50 (Cytochrome P450 2A6) was over 100 µM. The IC50 (Cytochrome P450 1A2) was over 100 µM, the AUC [12] was 4240 µg·h/mL and the NOAEL at 3 month [13] was 300 mg/kg. It also gave an IC50 (Cytochrome P450 3A5 [14]) of over 100 µM and a TIME [15] of 72 h.
